From ChEMBL document CHEMBL5042530, “Discovery of Novel Pyridine-Dimethyl-Phenyl-DAPY Hybrids by Molecular Fusing of Methyl-Pyrimidine-DAPYs and Difluoro-Pyridinyl-DAPYs: Improving the Druggability toward High Inhibitory Activity, Solubility, Safety, and PK” (J Med Chem, 2022)

Columns and labels:
[1] = system: Human immunodeficiency virus 1; assay: Antiviral activity against HIV-1 harboring Y188L mutant infected in human MT4 cells assessed as protection against virus-induced cytotoxicity incubated for 5 days by MTT assay; format: functional, organism-based; settings: Human immunodeficiency virus 1, MT4, 120 h
[2] = biological target: Human immunodeficiency virus type 1 reverse transcriptase (Human immunodeficiency virus 1, UniProt Q72547); assay: Inhibition of recombinant wild type p66/p51 HIV1 reverse transcriptase incubated for 40 mins by picogreen dye-based spectrofluorometric analysis
[3] = system: Human immunodeficiency virus 1; assay: Antiviral activity against HIV-1 harboring K103N mutant infected in human MT4 cells assessed as protection against virus-induced cytotoxicity incubated for 5 days by MTT assay; format: functional, organism-based; settings: Human immunodeficiency virus 1, MT4, 120 h
[4] = system: Human immunodeficiency virus 1; assay: Antiviral activity against HIV-1 harboring RT L100I mutant infected in human MT4 cells assessed as protection against virus-induced cytotoxicity incubated for 5 days by MTT assay; format: functional, organism-based; settings: Human immunodeficiency virus 1, MT4, 120 h
[5] = system: Human immunodeficiency virus 1; assay: Antiviral activity against HIV-1 harboring E138K mutant infected in human MT4 cells assessed as protection against virus-induced cytotoxicity incubated for 5 days by MTT assay; format: functional, organism-based; settings: Human immunodeficiency virus 1, MT4, 120 h
[6] = system: Human immunodeficiency virus 1; assay: Antiviral activity against HIV-1 harboring Y181C mutant infected in human MT4 cells assessed as protection against virus-induced cytotoxicity incubated for 5 days by MTT assay; format: functional, organism-based; settings: Human immunodeficiency virus 1, MT4, 120 h
[7] = system: Human immunodeficiency virus 1; assay: Antiviral activity against wild type HIV-1 IIIB infected in human MT4 cells assessed as protection against virus-induced cytotoxicity incubated for 5 days by MTT assay; format: functional, organism-based; settings: Human immunodeficiency virus 1, IIIB, MT4, 120 h
[8] = Cytotoxicity against human MT4 cells assessed as reduction in cell viability measured after 5 days by MTT assay; format: toxicity, cell-based; settings: time 5 day
[9] = Selectivity index, ratio of CC50 for cytotoxicity against human MT4 cells to EC50 for antiviral activity against HIV-1 IIIB infected in human MT4 cells; format: toxicity, cell-based; settings: read-out: Ratio CC50/EC50
[10] = system: Human immunodeficiency virus 1; assay: Antiviral activity against HIV-1 harboring F227L/V106A double mutant infected in human MT4 cells assessed as protection against virus-induced cytotoxicity incubated for 5 days by MTT assay; format: functional, organism-based; settings: Human immunodeficiency virus 1, MT4, 120 h
[11] = system: Human immunodeficiency virus 1; assay: Antiviral activity against HIV-1 harboring RES056 mutant infected in human MT4 cells assessed as protection against virus-induced cytotoxicity incubated for 5 days by MTT assay; format: functional, organism-based; settings: Human immunodeficiency virus 1, MT4, 120 h

| Compound | EC50 [1] [nM] | IC50 [2] [nM] | EC50 [3] [nM] | EC50 [4] [nM] | EC50 [5] [nM] | EC50 [6] [nM] | EC50 [7] [nM] | CC50 at 120 h [8] [µM] | selectivity ratio [9] | EC50 [10] [nM] | EC50 [11] [nM] |
| --- | --- | --- | --- | --- | --- | --- | --- | --- | --- | --- | --- |
| Cc1cnc(Nc2ccc(C#N)cc2)nc1Nc1c(F)cc(-c2ccncc2)cc1F | 258 | 12 | 5.4 | 35 | 9.2 | 22 |  |  |  |  |  |
| Cc1cnc(Nc2ccc(C#N)cc2)nc1Nc1c(F)cc(-c2ccnc(F)c2)cc1F | > 2000 | 36 | 20.9 | 105 | 17.9 | 74.5 | 3.7 | 167 | 45200 |  |  |
| Cc1cnc(Nc2ccc(C#N)cc2)nc1Nc1c(F)cc(-c2cncnc2)cc1F | > 916 | 280 | 88 | > 916 | 87 | > 916 | 16 | 0.9 | 59 |  |  |
| Cc1cc(-c2cccs2)cc(C)c1Nc1ccnc(Nc2ccc(C#N)cc2)n1 | 232 | 29 | 13 | 52 | 15 | 43 | 3.5 | 10 | 2850 | 847 | 853 |
| Cc1cc(-c2ccnc(C(F)(F)F)c2)cc(C)c1Nc1ccnc(Nc2ccc(C#N)cc2)n1 |  | 68.5 | 37 | 231 | 47 | 128 | 6.6 | 6.1 | 923 |  |  |
| Cc1cc(-c2cncnc2)cc(C)c1Nc1ccnc(Nc2ccc(C#N)cc2)n1 |  | 343 | 10 | 113 | 36 | 48 | 1.7 | 6.8 | 4020 |  | 588 |
| Cc1cnc(Nc2ccc(C#N)cc2)nc1Nc1c(F)cc(-c2ccc(C#N)nc2)cc1F | 2380 | 22 | 11 | 52 | 8.5 | 35 | 1.6 | 62 | 37500 |  |  |
| Cc1cnc(Nc2ccc(C#N)cc2)nc1Nc1c(F)cc(-c2cccnc2)cc1F | > 1090 | 197 | 111 | > 1090 | 59 | > 1090 | 14 | 1.1 | 80 |  |  |
| Cc1cc(-c2cc(C)c(Nc3ccnc(Nc4ccc(C#N)cc4)n3)c(C)c2)cc(C)n1 | 1840 | 66.7 | 33 | 260 | 58 | 85 | 6.2 | 2.3 | 375 | 1720 |  |
| Cc1cc(-c2cnc(C(F)(F)F)nc2)cc(C)c1Nc1ccnc(Nc2ccc(C#N)cc2)n1 | 1260 | 64 | 8.4 | 98 | 37 | 29.8 | 5.2 | 4.9 | 951 |  | 429 |
| Cc1cc(-c2cc3ccccc3s2)cc(C)c1Nc1ccnc(Nc2ccc(C#N)cc2)n1 | 2820 | 61.5 | 170 | 713 | 206 | 431 | 36 | 138 | 3780 | 206 |  |
| Cc1cnc(Nc2ccc(C#N)cc2)nc1Nc1c(F)cc(-c2cccs2)cc1F | 980 | 12 | 51 | 176 | 12 | 241 | 6 | 8 | 1330 |  |  |
| O=C1Nc2ccc(Cl)cc2[C@@](C#CC2CC2)(C(F)(F)F)O1 [EFAVIRENZ] |  |  |  | 10.7 |  |  |  | > 6.33 |  | 410 | 560 |
| Cc1cc(C#N)cc(C)c1Oc1nc(Nc2ccc(C#N)cc2)nc(N)c1Br [ETRAVIRINE] |  |  |  | 44.7 |  |  |  | > 4.6 |  | 31 | 101 |
| Cc1ccnc2c1NC(=O)c1cccnc1N2C1CC1 [NEVIRAPINE] | > 2000 |  |  |  |  |  |  | > 15 |  |  |  |
